# Experimental data taken from PMC11413503, “SCR‐7952, a highly selective MAT2A inhibitor, demonstrates synergistic antitumor activities in combination with the S‐adenosylmethionine‐competitive or the methylthioadenosine‐cooperative protein arginine methyltransferase 5 inhibitors in methylthioadenosine phosphorylase‐deleted tumors” (MedComm, 2024).
# Columns and labels:
# CAV1.2 = CAV1.2 (Homo sapiens, UniProt Q13936); experiment: cell-based
# PDE3A = PDE3A (Homo sapiens, UniProt Q14432); experiment: Mini-profiling panel, non-kinase enzyme; assay type: biochemical; settings: Non-Kinase Enzymes; read-out: PDE3A Inhibitor IC50
# ADORA2A = ADORA2A (Homo sapiens, UniProt P29274); experiment: Mini-profiling panel, GPCR; assay type: cell-based; settings: GPCR Targets
# HCT116 MTAP−/− xenograft = experiment: Xenograft combination treatment study; assay type: in vivo, mice; settings: SCR-7952 0.3 mg/kg alone
# Protocol: Subcutaneous injections of HCT116 MTAP ^−/− cells were performed (5 × 10^6 cells in 100 µL) into Nu/Nu female mice. Mice were observed daily for the development of tumors. Six days after tumor implantation, mice were randomly distributed into different groups. SCR‐7952, AG‐270, JNJ‐64619178, or vehicle (water with 5% N‐methylpyrrolidone and 10% solutol HS‐15) were daily administrated by oral gavage. Tumor volumes and body weights were recorded three times per week. Tumor volumes were measured in two dimensions using a caliper, and the volume was expressed in mm^3 using the formula: V = (L × W × W)/2, where V is tumor volume, L is tumor length (the longest tumor dimension), and W is tumor width (perpendicular to L). The tumor growth inhibition rate (TGI%) of each dosing group was calculated according to the following formula: %TGI = (1 − (V t(treatment group) − V 0(treatment group))/(V t(vehicle group) − V 0(vehicle group))) × 100%, where V t is average tumor volume of a dosing group on a specific day, V 0 is average tumor volume of a dosing group on the initial day. At the end of the study, plasma and tumor tissues were collected and stored at −80°C for further measurement.
# AR = AR (Homo sapiens, UniProt P10275); experiment: Mini-profiling panel, nuclear hormone receptor; assay type: cell-based
# Protocol: (§1) Further insight into selectivity was evaluated in a functional panel of 47 representative targets closely related to human life activities, including G protein‐coupled receptors, transporters, ion channels, kinases, nuclear hormone receptor targets, and nonkinase enzymes (Table S3).
# [1] = tested on: WI-38 (human fetal lung fibroblast cells); experiment: Proliferation assay (CellTiter-Glo); assay type: cell-based; settings: MTAP WT; read-out: IC50, anti-proliferation WI-38
# Protocol: (§2) HCT116 colon carcinoma parental (WT) cells with MTAP ^−/− isogenic clone were established by KYinno Biotechnology Co., Ltd. (Beijing, China). A549, MIA PaCa‐2, and WI‐38 cell lines were obtained from ATCC. NCI‐H838 was obtained from Cobioer Biosciences. HCT116 WT and KO MTAP cells were cultured in McCoy's 5A media containing 10% FBS. A549 cells were cultured in DMEM media containing 10% FBS. MIA PaCa‐2 cells were cultured in DMEM media containing 10% FBS and 2.5% horse serum. NCI‐H838 cells were cultured in PRMI 1640 media containing 10% FBS. WI‐38 cells were cultured in EMEM media containing 10% FBS.
# (§3) Cells were plated in 96‐well cell culture plates and allowed to attach overnight at 37°C in 5% CO2. Compounds diluted in DMSO were added to cells in a dose–response format for 6 days. The final concentration of DMSO was 0.1% in media. Cell proliferation was measured using CellTiter‐Glo Cell Viability Assay (Promega). The IC50 values were calculated using the GraphPad Prism 9. Drug combination effects were analyzed using Combenefit software.[45]
# HCT116 MTAP−/− cells = experiment: Proliferation assay (CellTiter-Glo); assay type: cell-based
# Protocol: as §2, §3
# COX2 = COX2 (Homo sapiens, UniProt P35354); experiment: Mini-profiling panel, non-kinase enzyme; assay type: biochemical; settings: Non-Kinase Enzymes; read-out: COX2 Inhibitor IC50
# [2] = tested on: SAM levels in HCT116 MTAP−/− xenograft tumors and mice plasma; experiment: In vivo SAM measurement in tumors and plasma; settings: 2 or 4 h post the final dose, low group, 16 days
# Protocol: The concentration of SAM in plasma and tissue samples was determined using a UPLC–MS/MS method. For plasma samples, an aliquot of 20 µL plasma sample was added with 400 µL extraction buffer (1 M acetic acid in MeOH), then vortexed and centrifuged at 16,000 g for 5 min. The supernatant was treated as the homogenized tissue sample, and the sample dilution factor was 21. For tumor samples, the tumor tissues were homogenized with 9 volumes (v/w) of extraction buffer, then vortexed and centrifuged at 16,000 g for 5 min. The supernatant was treated as the homogenized tissue sample. An aliquot of 30 µL tissue sample was added with 600 µL extraction buffer, then vortexed and centrifuged at 16,000 g for 5 min. The total sample dilution factor is 210. An aliquot of 60 µL diluted samples, standards, or QCs was added with 400 µL extraction buffer with IS (SAM‐d 3, 50 ng/mL in extraction buffer). The mixture was vortexed at 250 g for 10 min and centrifuged at 16,000 g for 5 min. An aliquot of 4 µL supernatant was injected for UPLC–MS/MS analysis. The standard calibration curve was in a 1.0–300 ng/mL concentration range. UPLC–MS/MS method for SAM detection was performed as mentioned before.
# NMDAR (1A/2B) = NMDAR (1A/2B) (Homo sapiens, UniProt Q05586+Q13224); experiment: Mini-profiling panel, ion channel; assay type: cell-based
# Protocol: as §1
# HTR3A = HTR3A (Homo sapiens, UniProt P46098); experiment: Mini-profiling panel, ion channel; assay type: cell-based
# Protocol: as §1
# NAV1.5 = NAV1.5 (Homo sapiens, UniProt Q14524); experiment: Mini-profiling panel, ion channel; assay type: cell-based
# Protocol: as §1
# KvLQT1/mink = KvLQT1/mink (Homo sapiens, UniProt P51787); experiment: Mini-profiling panel, ion channel; assay type: cell-based
# Protocol: as §1
# nAChR(a4/b2) = nAChR(a4/b2) (Homo sapiens, UniProt P17787+P43681); experiment: Mini-profiling panel, ion channel; assay type: cell-based
# Protocol: as §1
# [3] = Functional panel of 47 representative targets; settings: at 10 µM
# human UGT1A1 = human UGT1A1 (Homo sapiens, UniProt P22309); experiment: UGT1A1 biochemical assay
# ADRB2 = ADRB2 (Homo sapiens, UniProt P07550); experiment: Mini-profiling panel, GPCR; assay type: cell-based; settings: GPCR Targets
# Sequence of ADRB2 (P07550 whole entry, species assumed): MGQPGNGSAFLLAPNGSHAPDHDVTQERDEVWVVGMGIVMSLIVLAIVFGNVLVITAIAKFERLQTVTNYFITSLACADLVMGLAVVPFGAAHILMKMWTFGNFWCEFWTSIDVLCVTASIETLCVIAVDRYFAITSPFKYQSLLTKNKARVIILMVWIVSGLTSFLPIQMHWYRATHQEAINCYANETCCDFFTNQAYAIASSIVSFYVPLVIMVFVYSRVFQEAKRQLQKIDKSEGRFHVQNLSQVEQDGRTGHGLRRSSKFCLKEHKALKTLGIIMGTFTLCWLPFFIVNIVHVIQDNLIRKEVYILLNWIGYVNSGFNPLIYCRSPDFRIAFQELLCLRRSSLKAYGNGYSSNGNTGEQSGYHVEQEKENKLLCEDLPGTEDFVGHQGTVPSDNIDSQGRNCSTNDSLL
# Sequence of KvLQT1/mink (P51787 whole entry): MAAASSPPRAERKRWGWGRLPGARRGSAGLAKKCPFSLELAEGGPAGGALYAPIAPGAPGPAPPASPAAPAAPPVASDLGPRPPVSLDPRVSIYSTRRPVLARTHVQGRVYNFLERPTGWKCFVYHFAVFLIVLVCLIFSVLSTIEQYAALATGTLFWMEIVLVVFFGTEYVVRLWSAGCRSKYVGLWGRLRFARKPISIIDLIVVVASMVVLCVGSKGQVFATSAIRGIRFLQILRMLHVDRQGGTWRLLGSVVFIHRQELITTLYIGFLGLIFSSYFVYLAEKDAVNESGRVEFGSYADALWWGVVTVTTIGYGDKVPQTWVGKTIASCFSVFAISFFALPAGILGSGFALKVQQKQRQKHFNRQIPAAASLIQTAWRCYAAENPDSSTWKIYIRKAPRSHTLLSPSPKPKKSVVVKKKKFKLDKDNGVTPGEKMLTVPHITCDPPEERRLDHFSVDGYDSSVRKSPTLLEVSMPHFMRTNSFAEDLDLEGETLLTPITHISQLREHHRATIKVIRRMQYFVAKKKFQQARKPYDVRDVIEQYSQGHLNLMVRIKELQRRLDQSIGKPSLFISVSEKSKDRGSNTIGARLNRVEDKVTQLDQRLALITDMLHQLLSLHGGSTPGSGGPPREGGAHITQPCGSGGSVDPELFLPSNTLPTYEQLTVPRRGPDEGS
# Sequence of NMDAR (1A/2B) (Q13224 27-1484, other chains not shown): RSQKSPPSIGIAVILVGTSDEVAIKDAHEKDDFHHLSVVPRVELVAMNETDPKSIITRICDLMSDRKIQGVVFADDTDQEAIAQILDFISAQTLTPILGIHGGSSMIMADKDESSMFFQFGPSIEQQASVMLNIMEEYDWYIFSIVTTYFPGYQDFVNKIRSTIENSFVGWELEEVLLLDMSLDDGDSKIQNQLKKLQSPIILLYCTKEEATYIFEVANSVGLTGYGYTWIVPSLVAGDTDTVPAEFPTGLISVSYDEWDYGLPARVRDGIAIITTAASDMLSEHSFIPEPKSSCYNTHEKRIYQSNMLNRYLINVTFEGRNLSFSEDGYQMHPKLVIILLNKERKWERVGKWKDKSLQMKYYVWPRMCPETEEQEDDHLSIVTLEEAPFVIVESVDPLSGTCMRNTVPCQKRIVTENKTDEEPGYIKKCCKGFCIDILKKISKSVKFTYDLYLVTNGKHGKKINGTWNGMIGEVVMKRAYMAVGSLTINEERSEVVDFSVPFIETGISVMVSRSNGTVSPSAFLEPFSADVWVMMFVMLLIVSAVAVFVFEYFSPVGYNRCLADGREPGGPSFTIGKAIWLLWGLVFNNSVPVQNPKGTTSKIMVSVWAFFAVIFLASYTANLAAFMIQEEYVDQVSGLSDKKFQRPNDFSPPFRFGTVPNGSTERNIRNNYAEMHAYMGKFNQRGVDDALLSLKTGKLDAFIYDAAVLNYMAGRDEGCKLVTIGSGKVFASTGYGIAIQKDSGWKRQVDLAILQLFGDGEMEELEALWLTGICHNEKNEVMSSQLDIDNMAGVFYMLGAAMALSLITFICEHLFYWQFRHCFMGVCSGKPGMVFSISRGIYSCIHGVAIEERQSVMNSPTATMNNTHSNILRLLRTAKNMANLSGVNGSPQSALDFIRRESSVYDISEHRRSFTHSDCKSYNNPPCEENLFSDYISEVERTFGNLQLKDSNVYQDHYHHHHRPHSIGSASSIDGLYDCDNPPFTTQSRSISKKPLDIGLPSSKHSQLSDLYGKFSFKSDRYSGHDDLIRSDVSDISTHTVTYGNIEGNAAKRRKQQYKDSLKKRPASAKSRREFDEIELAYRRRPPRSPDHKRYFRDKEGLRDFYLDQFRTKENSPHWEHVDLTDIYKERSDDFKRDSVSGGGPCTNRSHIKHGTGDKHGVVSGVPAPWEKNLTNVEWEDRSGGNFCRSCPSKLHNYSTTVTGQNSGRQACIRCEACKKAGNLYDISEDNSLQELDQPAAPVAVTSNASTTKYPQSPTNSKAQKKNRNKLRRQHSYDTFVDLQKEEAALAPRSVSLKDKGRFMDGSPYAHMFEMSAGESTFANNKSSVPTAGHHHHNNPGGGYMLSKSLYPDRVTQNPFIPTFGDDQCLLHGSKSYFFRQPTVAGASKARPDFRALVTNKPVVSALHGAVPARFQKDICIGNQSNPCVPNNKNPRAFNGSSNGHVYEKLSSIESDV
# Sequence of nAChR(a4/b2) (P43681 29-627 limits assumed): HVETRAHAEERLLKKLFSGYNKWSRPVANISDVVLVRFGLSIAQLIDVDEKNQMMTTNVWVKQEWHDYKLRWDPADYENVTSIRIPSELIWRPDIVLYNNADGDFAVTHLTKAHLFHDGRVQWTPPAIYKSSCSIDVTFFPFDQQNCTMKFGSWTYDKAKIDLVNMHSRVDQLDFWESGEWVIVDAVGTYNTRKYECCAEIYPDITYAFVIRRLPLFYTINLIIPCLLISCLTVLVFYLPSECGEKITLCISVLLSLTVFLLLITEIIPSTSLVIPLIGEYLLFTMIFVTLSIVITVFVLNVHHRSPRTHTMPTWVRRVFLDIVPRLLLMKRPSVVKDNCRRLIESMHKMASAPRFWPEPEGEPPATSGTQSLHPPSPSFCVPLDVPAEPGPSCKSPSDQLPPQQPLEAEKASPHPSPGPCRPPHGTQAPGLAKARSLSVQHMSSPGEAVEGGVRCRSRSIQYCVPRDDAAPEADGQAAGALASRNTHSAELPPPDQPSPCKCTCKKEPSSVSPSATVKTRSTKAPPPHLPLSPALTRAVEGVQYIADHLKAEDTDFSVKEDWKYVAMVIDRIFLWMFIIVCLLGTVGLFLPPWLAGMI
# Sequence of nAChR(a4/b2) (P17787 26-502): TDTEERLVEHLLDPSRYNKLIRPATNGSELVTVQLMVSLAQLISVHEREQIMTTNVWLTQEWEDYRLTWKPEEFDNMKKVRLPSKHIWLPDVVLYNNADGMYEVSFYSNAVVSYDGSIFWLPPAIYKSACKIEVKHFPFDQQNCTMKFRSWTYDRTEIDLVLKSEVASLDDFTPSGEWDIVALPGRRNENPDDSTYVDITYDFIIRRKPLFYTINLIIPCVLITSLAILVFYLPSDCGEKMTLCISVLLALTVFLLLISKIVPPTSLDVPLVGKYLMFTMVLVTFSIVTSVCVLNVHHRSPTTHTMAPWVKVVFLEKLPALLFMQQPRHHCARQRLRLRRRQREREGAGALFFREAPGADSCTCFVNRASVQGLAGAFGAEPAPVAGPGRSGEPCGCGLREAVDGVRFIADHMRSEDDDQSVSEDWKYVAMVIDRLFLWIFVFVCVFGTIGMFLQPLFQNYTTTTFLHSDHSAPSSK
# Sequence of AR (P10275 whole entry): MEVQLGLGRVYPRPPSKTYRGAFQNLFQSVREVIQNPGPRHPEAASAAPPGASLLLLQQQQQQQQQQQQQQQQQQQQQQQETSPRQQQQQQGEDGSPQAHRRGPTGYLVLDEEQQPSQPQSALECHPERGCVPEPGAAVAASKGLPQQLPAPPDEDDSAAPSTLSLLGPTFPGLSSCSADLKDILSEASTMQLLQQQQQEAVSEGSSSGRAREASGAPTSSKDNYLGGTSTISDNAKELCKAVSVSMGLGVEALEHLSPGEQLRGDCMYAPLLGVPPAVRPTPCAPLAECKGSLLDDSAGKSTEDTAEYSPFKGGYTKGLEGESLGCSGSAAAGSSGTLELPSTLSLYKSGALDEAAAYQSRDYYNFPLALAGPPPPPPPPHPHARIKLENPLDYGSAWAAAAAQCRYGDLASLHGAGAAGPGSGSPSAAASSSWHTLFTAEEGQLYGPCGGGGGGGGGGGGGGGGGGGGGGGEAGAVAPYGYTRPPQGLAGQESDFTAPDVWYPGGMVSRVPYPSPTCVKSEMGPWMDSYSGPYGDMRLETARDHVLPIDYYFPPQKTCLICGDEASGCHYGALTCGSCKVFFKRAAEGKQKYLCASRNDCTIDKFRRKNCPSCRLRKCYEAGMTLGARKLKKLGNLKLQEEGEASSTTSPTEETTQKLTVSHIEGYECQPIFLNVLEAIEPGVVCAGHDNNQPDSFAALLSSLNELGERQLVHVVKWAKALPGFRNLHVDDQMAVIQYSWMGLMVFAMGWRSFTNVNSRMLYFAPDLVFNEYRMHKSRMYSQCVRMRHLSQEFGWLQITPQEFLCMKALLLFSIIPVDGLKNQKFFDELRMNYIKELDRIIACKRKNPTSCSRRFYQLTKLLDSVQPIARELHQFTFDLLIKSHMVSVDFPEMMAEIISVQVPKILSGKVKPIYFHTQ
structure (smiles),measurement,setting,value
"Cn1cnc2c(=O)n(-c3cccnc3C3CC3)c3cc(Cl)ccc3c21 [SCR‐7952, 7‐chloro‐5‐(2‐cyclopropylpyridin‐3‐yl)‐1‐methyl‐1,5‐dihydro‐4H‐imidazo[4,5‐c]quinolin‐4‐one]",IC50,CAV1.2,> 10 µM
same,IC50,PDE3A,> 10 µM
same,EC50,ADORA2A; read-out: ADORA2A Agonism EC50,> 10 µM
same,IC50,ADORA2A; read-out: ADORA2A Antagonism IC50,> 10 µM
same,TGI,HCT116 MTAP−/− xenograft,55.0%
same,EC50,AR,> 10 µM
same,IC50,AR,> 10 µM
same,IC50,[1],4.31 µM
same,fold difference of antiproliferative effect of SCR-7952 and AG-270,"HCT116 MTAP−/− cells; HCT116 MTAP−/− cells, 34.4 vs. 300.4 nM",8.7 fold
same,IC50,"HCT116 MTAP−/− cells; Homo sapiens, HCT-116, 144 h, 6-day treatment, read-out: IC50, anti-proliferation HCT116 MTAP−/−",0.0344 µM
same,IC50,COX2,> 10 µM
same,inhibition of SAM levels in tumors and plasma,[2],53.56–68.72%
same,EC50,NMDAR (1A/2B),> 10 µM
same,IC50,NMDAR (1A/2B),> 10 µM
same,EC50,HTR3A,> 10 µM
same,IC50,HTR3A,> 10 µM
same,IC50,NAV1.5,> 10 µM
same,EC50,KvLQT1/mink,> 10 µM
same,IC50,KvLQT1/mink,> 10 µM
same,EC50,nAChR(a4/b2),> 10 µM
same,IC50,nAChR(a4/b2),> 10 µM
same,agonistic or antagonistic activities on 47 targets,[3],did not exhibit significant pharmacological effects
same,IC50,human UGT1A1,> 100 µM
same,EC50,ADRB2; read-out: ADRB2 Agonism EC50,> 10 µM
same,IC50,ADRB2; read-out: ADRB2 Antagonism IC50,> 10 µM
